Reference: patent publication US20040242886A1, “Monocyclic diazodioxide based Bcl-2 protein antagonists related applications” (priority 2003, published 2004)
Like-named read-outs stand apart in the source and are kept apart here.

Tests used:
[1] = tested on: A549 human lung cells expressing low Bcl-2 and high Bcl-XL levels; experiment: Acute cytotoxicity (apoptotic activity), Alamar Blue viability, A549 cells; format: cell-based
Experimental: (§1) The biological activity of the compounds provided herein were assessed in cellular system by the method similar to the one described by Amundson et al. (Amundson, S. A. et al, Cancer Research 2000, 60, 6101-6110), which is incorporated herein by reference in its entirety. The compounds were tested for acute cytotoxicity (apoptotic activity) using two human cancer cell lines expressing high levels of either Bcl-2 or BCl-XL. HL60, human leukemic cells expressing high Bcl-2 and low BCl-XL levels, and A549 human lung cells expressing low Bcl-2 and high BCl-XL levels, were incubated with the compounds at concentrations between 0.5 and 1000 μg/mL for 4 hours at 37° C., 5% CO2. The number of viable cells were measured by mitochondrial transformation of Alamar Blue to a fluorescent dye. LC50 values for each test compound and controls are provided in the individual examples that follow.
(§2) The compounds provided herein were tested for acute cytoxicity (apoptotic activity) using two human cancer cell lines expressing high levels of either Bcl-2 or BCl-XL. HL-60 cells expressing high Bcl-2 and low Bcl-XL levels, and A549 human lung cells expressing low Bcl-2 and high Bcl-XL levels were incubated with the compounds provided herein at concentrations between 0.5 and 1000 μg/mL for 4 hours at 37° C., 5% CO2. The number of viable cells were measured by mitochondrial transformation of Alamar Blue to a fluorescent dye. As negative controls, the compounds were tested against the cell lines with low levels of Bcl-2 expression, viz., MDA-453 cells. LC50 values for each compound and controls were determined.

[2] = tested on: HL60, human leukemic cells expressing high Bcl-2 and low Bcl-XL levels; experiment: Acute cytotoxicity (apoptotic activity), Alamar Blue viability, HL-60 cells; format: cell-based
Experimental: as §1, §2

cell = settings: cited from earlier work
[3] = Homo sapiens, A549, 4 h; read-out: LC 50 (μM) A549
[4] = Homo sapiens, HL-60, 4 h; read-out: LC 50 (μM) HL-60
[5] = Homo sapiens, A549; 4 hours at 37° C.; read-out: LC50 value in A549 cell lines
[6] = Homo sapiens, HL-60; 4 hours at 37° C.; read-out: LC50 value in HL-60 cell lines

| SMILES | CC50 [1, 3] | CC50 [2, 4] | further results |
| --- | --- | --- | --- |
| CCSc1ccc(S(=O)(=O)C2CCCCC2)n[n+]1[O-] [compound 38] | > 200 µM | > 200 µM | – |
| CCCCS(=O)(=O)c1ccc(S(=O)(=O)CCCC)[n+]([O-])n1 [compound 24] | > 200 µM | 50 to 200 µM | – |
| O=S(=O)(c1ccncc1)c1ccc(S(=O)(=O)C2CCCCC2)[n+]([O-])n1 [compound 60] | > 200 µM | 50 to 200 µM | – |
| O=S(=O)(c1ccc(Cl)n[n+]1[O-])C1CCCCC1 [Example 4, 3-chloro-6-cyclohexanesulfonyl-pyridazine-1-oxide] | – | – | CC50 [1, 5]: 188 µM; CC50 [2, 6]: 20.2 µM |
| [O-][n+]1nc(Cl)ccc1SC1CCCCC1 [compound 26] | > 200 µM | > 200 µM | – |
| COC(=O)CCS(=O)(=O)c1ccc(S(=O)(=O)C2CCCCC2)[n+]([O-])n1 [compound 48] | > 200 µM | < 50 µM | – |
| [O-][n+]1ccccc1Cl [compound 29] | > 200 µM | > 200 µM | – |
| CC(=O)Oc1ccc(S(=O)(=O)c2ccc(S(=O)(=O)C3CCCCC3)[n+]([O-])n2)cc1 [compound 51] | > 200 µM | 50 to 200 µM | – |
| O=S(=O)(c1ccc(Cl)c[n+]1[O-])C1CCCCC1 [compound 37] | > 200 µM | > 200 µM | – |
| COc1ccc(Cl)[n+]([O-])n1 [compound 3] | > 200 µM | > 200 µM | – |
| [O-][n+]1nc(Sc2ccccc2)ccc1Sc1ccccc1 [pyridazine, 3,6-bis(phenylthio)-, 1-oxide] | – | – | CC50 [2, 6]: 58.9 µM |
| CCOc1ccc(S(=O)(=O)C2CCCCC2)[n+]([O-])n1 [compound 31] | > 200 µM | > 200 µM | – |
| Cc1cc(Cl)n[n+]([O-])c1Cl [compound 23] | > 200 µM | > 200 µM | – |
| CCS(=O)(=O)c1ccc(S(=O)(=O)CC)[n+]([O-])n1 [compound 12] | 50 to 200 µM | 50 to 200 µM | – |
| [O-][n+]1nc(Oc2ccccc2)ccc1Oc1ccccc1 [Example 2, 3,6-diphenoxvpyridazine-1-oxide] | – | – | CC50 ([1]; 4 hours at 37° C.; read-out: LC50 value in A549 cell lines): > 500 µM; CC50 ([2]; 4 hours at 37° C.; read-out: LC50 value in HL-60 cell lines): > 500 µM |
| O=S(=O)(CCO)c1ccc(S(=O)(=O)C2CCCCC2)[n+]([O-])n1 [compound 47] | > 200 µM | > 200 µM | – |
| Cc1cc2c(C(C)C)c(O)c(O)c(C=O)c2c(O)c1-c1c(C)cc2c(C(C)C)c(O)c(O)c(C=O)c2c1O [compound 1] | – | – | CC50 (cell): 1.5 µM |
| COc1ccccc1S(=O)(=O)c1ccc(S(=O)(=O)C2CCCCC2)[n+]([O-])n1 [compound 39] | 50 to 200 µM | < 50 µM | – |
| O=S(=O)(c1ccccc1)c1ccc(Cl)n[n+]1[O-] [compound 40] | > 200 µM | < 50 µM | – |
| O=S(=O)(c1ccccc1)c1ccc(S(=O)(=O)c2ccccc2)[n+]([O-])n1 [Example 1, 3,6-bis(benzenesulfonyl)pyridazine-1-oxide] | – | – | CC50 [1, 5]: 268 µM; CC50 [2, 6]: 20.5 µM |

| SMILES | CC50 [1, 3] | CC50 [2, 4] | further results |
| --- | --- | --- | --- |
| O=S(=O)(c1cc[n+]([O-])cc1)c1ccc(S(=O)(=O)C2CCCCC2)[n+]([O-])n1 [compound 53] | > 200 µM | 50 to 200 µM | – |
| CC(=O)NCCS(=O)(=O)c1ccc(S(=O)(=O)C2CCCCC2)[n+]([O-])n1 [compound 56] | > 200 µM | > 200 µM | – |
| O=S(=O)(c1ccccc1)c1ccc(S(=O)(=O)C2CCCCC2)n[n+]1[O-] [compound 41] | > 200 µM | < 50 µM | – |
| COC(=O)c1ccc(S(=O)(=O)c2ccc(S(=O)(=O)C3CCCCC3)[n+]([O-])n2)cc1 [compound 59] | > 200 µM | < 50 µM | – |
| O=S(=O)(c1ccccc1)c1ccc(S(=O)(=O)C2CCCCC2)[n+]([O-])n1 [Example 5, 3-benzenesulfonyl-6-cyclohexanesulfonyl-pyridazine-1-oxide] | – | – | CC50 [1, 5]: 279 µM; CC50 [2, 6]: 32.9 µM |
| CS(=O)(=O)Nc1ccc(S(=O)(=O)c2ccc(S(=O)(=O)C3CCCCC3)[n+]([O-])n2)cc1 [compound 58] | > 200 µM | > 200 µM | – |
| Cc1ccccc1S(=O)(=O)c1ccc(S(=O)(=O)c2ccccc2C)[n+]([O-])n1 [compound 19] | > 200 µM | 50 to 200 µM | – |
| [O-][n+]1nc(Cl)ccc1Cl [compound 2] | > 200 µM | < 50 µM | – |
| O=[N+]([O-])c1ccc(Sc2ccc(Sc3ccc([N+](=O)[O-])cc3)nn2)cc1 [compound 9] | – | – | CC50 ([1]; Homo sapiens, A549, 4 h, read-out: LC 50 (μM) A549): > 200 µM; CC50 ([2]; Homo sapiens, HL-60, 4 h, read-out: LC 50 (μM) HL-60): > 200 µM |
| O=S(=O)(c1ccc(S(=O)(=O)C2CCCCC2)[n+]([O-])n1)c1ccccc1Cl [compound 42] | 50 to 200 µM | < 50 µM | – |
| COC(=O)c1ccccc1S(=O)(=O)c1ccc(S(=O)(=O)C2CCCCC2)[n+]([O-])n1 [compound 43] | > 200 µM | < 50 µM | – |
| [O-][n+]1cc(Cl)ccc1Cl [compound 35] | > 200 µM | > 200 µM | – |
| O=S(=O)(Cc1ccccc1)c1ccc(S(=O)(=O)Cc2ccccc2)[n+]([O-])n1 [compound 14] | > 200 µM | > 200 µM | – |
| CCS(=O)(=O)c1ccc(S(=O)(=O)C2CCCCC2)[n+]([O-])n1 [compound 36] | 50 to 200 µM | < 50 µM | – |
| O=S(=O)(c1ccccc1)c1n[n+]([O-])c(O)c2ccccc12 [compound 44] | > 200 µM | > 200 µM | – |
| [O-][n+]1nc(Oc2ccccc2)ccc1Oc1ccccc1 [compound 4] | > 200 µM | > 200 µM | – |
| O=S(=O)(c1ccc(S(=O)(=O)C2CCCCC2)[n+]([O-])n1)C1CCCCC1 [Example 3, 3,6-bis-cyclohexanesulfonyl-pyridazine-1-oxide] | – | – | CC50 [1, 5]: 192 µM; CC50 [2, 6]: 32.3 µM |
| COc1ccc(Sc2ccc(Sc3ccc(OC)cc3)[n+]([O-])n2)cc1 [compound 10] | > 200 µM | > 200 µM | – |
| O=S(=O)(c1ccc(S(=O)(=O)C2CCCCC2)[n+]([O-])n1)C1CCCCC1 [compound 20] | > 200 µM | < 50 µM | – |
| Cc1cc(Cl)[n+]([O-])nc1Cl [compound 17] | > 200 µM | > 200 µM | – |

| SMILES | CC50 [1, 3] | CC50 [2, 4] | further results |
| --- | --- | --- | --- |
| CC(C)(C)S(=O)(=O)c1ccc(S(=O)(=O)C(C)(C)C)[n+]([O-])n1 [compound 25] | > 200 µM | 50 to 200 µM | – |
| Cc1ccc(S(=O)(=O)c2ccc(S(=O)(=O)C3CCCCC3)[n+]([O-])n2)cc1 [compound 49] | > 200 µM | 50 to 200 µM | – |
| O=S(=O)(c1ccc(Cl)n[n+]1[O-])C1CCCCC1 [compound 28] | > 200 µM | < 50 µM | – |
| O=S(=O)(c1ccc(Sc2ccccc2)n[n+]1[O-])C1CCCCC1 [compound 30] | > 200 µM | > 200 µM | – |
| O=C(O)c1ccc(S(=O)(=O)c2ccc(S(=O)(=O)C3CCCCC3)[n+]([O-])n2)cc1 [compound 57] | > 200 µM | > 200 µM | – |
| O=S(=O)(c1ccc(S(=O)(=O)C2CCCC2)[n+]([O-])n1)C1CCCC1 [compound 13] | > 200 µM | < 50 µM | – |
| [O-][n+]1nc(Cl)c2ccccc2c1Cl [compound 33] | 50 to 200 µM | 50 to 200 µM | – |
| O=S(=O)(c1ccccc1)c1ccc(S(=O)(=O)C2CCCCC2)[n+]([O-])n1 [compound 34] | > 200 µM | < 50 µM | – |
| CCS(=O)(=O)c1n[n+]([O-])c(OC(=O)c2cccc(Cl)c2)c2ccccc12 [compound 45] | > 200 µM | > 200 µM | – |
| [O-][n+]1nc(Sc2ccccn2)ccc1Sc1ccccn1 [compound 7, reference compound] | > 200 µM | > 200 µM | – |
| O=S(=O)(c1ccc(O)cc1)c1ccc(S(=O)(=O)C2CCCCC2)[n+]([O-])n1 [compound 50] | > 200 µM | 50 to 200 µM | – |
| O=S(=O)(c1ccc(-c2ccccc2)n[n+]1[O-])C1CCCCC1 [compound 61] | > 200 µM | > 200 µM | – |
| [O-][n+]1nc(Sc2ccccc2)ccc1Sc1ccccc1 [compound 5] | – | > 200 µM | – |
| COc1cccc(S(=O)(=O)c2ccc(S(=O)(=O)c3cccc(OC)c3)[n+]([O-])n2)c1 [compound 21] | > 200 µM | > 200 µM | – |
| Clc1ccc(Cl)nn1 [compound 1] | > 200 µM | > 200 µM | – |
| COc1ccccc1S(=O)(=O)c1ccc(S(=O)(=O)c2ccccc2OC)[n+]([O-])n1 [compound 22] | > 200 µM | < 50 µM | – |
| Cc1cccc(S(=O)(=O)c2ccc(S(=O)(=O)c3cccc(C)c3)[n+]([O-])n2)c1 [compound 18] | > 200 µM | > 200 µM | – |
| O=C(O)c1ccccc1Sc1ccc(SC2CCCCC2)[n+]([O-])n1 [compound 46] | > 200 µM | > 200 µM | – |
| Nc1ccc(S(=O)(=O)c2ccc(S(=O)(=O)C3CCCCC3)[n+]([O-])n2)cc1 [compound 55] | > 200 µM | < 50 µM | – |
